Data taken from paper PMC12693701, “Glucosinolate-Derived Metabolites from Barbarea vulgaris (Brassicaceae): Evaluation of Antimicrobial, Antioxidant, and Anti-Inflammatory Potentials” (Molecules, 2025).
≈ marks a conversion by molar mass, not a printed value. Read-outs that look alike come from different tables or passages of the source.

Tests used:
[1] = system: B. animalis subsp. lactis; assay: Microdilution MIC/MMC with resazurin; assay type: cell-based, Bifidobacterium animalis subsp. lactis
Method: (§1) The antimicrobial activity was evaluated against 15 microorganisms. This included 11 bacterial strains: four standard strains (Staphylococcus aureus ATCC 25923, Bacillus subtilis ATCC 6633, Bacillus pumilus NCTC 8241, and Escherichia coli ATCC 25922) and six clinical or environmental isolates (Staphylococcus aureus, Escherichia coli, Bacillus cereus, Proteus mirabilis, Salmonella enterica, and Klebsiella pneumoniae). One probiotic strain, Bifidobacterium animalis subsp. lactis was tested. In addition, four fungal strains, Candida albicans ATCC 10231, Trichoderma viride ATCC 13233, Aspergillus flavus ATCC 9170, and Fusarium solani ATCC 11712 were tested. The bacterial strains were kept in glycerol stock at −80 °C and the fungal strains in paraffin oil stock at 4 °C.
(§2) Bacterial and yeast suspensions were prepared using the direct colony method, as previously described by Andrews. The turbidity of the initial suspensions was adjusted to match the 0.5 McFarland standard using a densitometer (Biosan, Riga, Latvia), corresponding to approximately 10^8 colony-forming units (CFU)/mL for bacterial cells and 10^6 CFU/mL for yeast cells. Subsequently, 1:100 dilutions of the initial suspensions were prepared in sterile 0.85% saline. Fungal spore suspensions were obtained by gently harvesting spores from agar slopes containing mature mycelial growth. The collected spore suspensions were then diluted 1:1000 in sterile 0.85% saline prior to use.
(§3) Antimicrobial activity was evaluated by determining the minimum inhibitory concentration (MIC) and minimum microbicidal concentration (MMC) using the microdilution plate method with resazurin as an indicator [28]. In the 96-well plates, 100 μL of Mueller–Hinton broth (Torlak, Belgrade, Serbia) for bacterial testing and Sabouraud broth (Torlak, Belgrade, Serbia) for fungal testing were dispensed into each well. The compounds under investigation were initially dissolved in a 10% dimethyl sulfoxide (DMSO) solution, followed by dilution in sterile distilled water, resulting in a working compound solution containing 1% DMSO. A 100 μL aliquot of the stock solution of the tested compound was added to the first row, and twofold serial dilutions were then carried out using a multichannel pipette. The resulting concentration range was from 5 to 0.039 mg/mL. The inoculated microtiter plates were incubated at 37 °C for 24 h for bacteria, at 28 °C for 48 h for yeasts, and at 28 °C for 72 h for molds.
(§4) Each test also included growth control and sterility control. All tests were conducted in duplicate. MIC was defined as the lowest concentration of tested compounds that prevented resazurin color change from blue to pink. For molds, MIC values of the tested compound were determined as the lowest concentration that inhibited visible mycelia growth. MMC was determined by inoculation of the nutrient agar medium by plating […] of samples from wells, where no indicator color change was recorded. At the end of the incubation period, the lowest concentration with no growth (no colony) was defined as MMC.
(§5) Doxycycline, ampicillin and amphotericin B (- Sigma-Aldrich, St. Louis, MO, USA) and ketoconazole (Hemofarm A.D., Vršac, Serbia) were dissolved in a nutrient liquid medium. Doxycycline is a broad-spectrum antibiotic effective against both aerobic and anaerobic Gram-positive and Gram-negative bacteria. Ampicillin, a beta-lactam antibiotic, primarily targets Gram-positive bacteria but also some Gram-negative strains. Amphotericin B is an antifungal drug often used for serious systemic fungal infections and is one of the effective treatments for fungal infections caused by Aspergillus sp. Ketoconazole is an antifungal agent used to inhibit the growth of Candida species.

K. pneumoniae = assay: Microdilution MIC/MMC with resazurin; assay type: cell-based, Klebsiella pneumoniae; details: for MIC: Klebsiella pneumoniae
Method: as §1, §2, §3, §4, §5

C. albicans ATCC 10231 = assay: Microdilution MIC/MMC with resazurin; assay type: cell-based, Candida albicans; details: for MIC: Candida albicans, ATCC10231
Method: as §1, §2, §3, §4, §5

[2] = DPPH radical scavenging assay; details: mean ± SD
Method: The DPPH assay was used to assess the ability of the tested compounds to scavenge reactive radical species. Stock solutions of the investigated compounds were prepared in DMSO and then diluted with methanol to a final volume of 1000 µL. An equal volume of a 50 µM DPPH solution in methanol was then added to the prepared mixture. The final concentrations of the test compounds were 25, 50, and 100 µM. After thorough mixing, the samples were incubated in the dark at room temperature for 20 to 60 min. Methanol was used as a blank, and absorbance was measured at 517 nm after incubation. All measurements were performed in triplicate.

[3] = B. animalis subsp. lactis, compounds 1–8
[4] = Bifidobacterium animalis, B. animalis subsp. lactis, compounds 1–8, read-out: MIC
[5] = K. pneumoniae, compounds 1–8, read-out: MIC
[6] = C. albicans ATCC 10231, compounds 1–8
[7] = C. albicans ATCC 10231, compounds 1–8, read-out: MIC

SMILES | MMC [1, 3] [mg/mL] | MIC [1, 4] [µg/mL] | MMC (K. pneumoniae; K. pneumoniae, compounds 1–8) [mg/mL] | MIC (K. pneumoniae; [5]) [µg/mL] | MMC (C. albicans ATCC 10231; [6]) [mg/mL] | MIC (C. albicans ATCC 10231; [7]) [µg/mL] | DPPH Scavenging Ability ([2]; 25 µM, 20 min) [%] | DPPH Scavenging Ability ([2]; 25 µM, 60 min) [%] | DPPH Scavenging Ability ([2]; 50 µM, 20 min) [%] | DPPH Scavenging Ability ([2]; 50 µM, 60 min) [%] | DPPH Scavenging Ability ([2]; 100 µM, 20 min) [%] | DPPH Scavenging Ability ([2]; 100 µM, 60 min) [%] | MIC [1, 3] [µg/mL] | MIC ([1]; Bifidobacterium animalis) [µg/mL] | MIC (K. pneumoniae) [µg/mL] | MIC (C. albicans ATCC 10231) [µg/mL]
S=C1NCC(c2ccccc2)O1 (racemic) [Compound 4, rac-5-Phenyl-1,3-oxazolidine-2-thione] | 5 | 1250 (≈ 6.97 mM) | 5 | 2500 (≈ 13.9 mM) | 5 | 5000 (≈ 27.9 mM) | 1.2 ± 0.7 | 1.3 ± 0.5 | 1.7 ± 0.8 | 2.0 ± 0.9 | 3.8 ± 1.2 | 3.5 ± 1.7 |  |  |  | 
CSC(=S)NCCc1ccccc1 [Compound 1, Methyl phenethylcarbamodithioate] | 2.5 | 1250 (≈ 5.91 mM) | 5 | 5000 (≈ 23.7 mM) | >5 | 1250 (≈ 5.91 mM) | 1.6 ± 1.2 | 1.8 ± 1.5 | 2.5 ± 1.1 | 2.4 ± 1.4 | 2.6 ± 1.2 | 2.9 ± 1.7 |  |  |  | 
CSC(=S)NCCc1ccc(O)cc1 [Compound 2, methyl-4-hydroxyphenylethyl dithiocarbamate] | 0.625 | 78 (≈ 0.343 mM) | 0.625 | 625 (≈ 2.75 mM) | >5 | 2500 (≈ 11 mM) | 11.9 ± 0.7 | 12.0 ± 0.4 | 15.6 ± 0.3 | 15.7 ± 1.4 | 24.9 ± 1.1 | 25.2 ± 1.6 |  |  |  | 
O=C(O)C1CSC(=S)N1 (stereo not shown) [Compound 3, 2-Thioxothiazolidine-4-carboxylic Acid] | 2.5 | 625 (≈ 3.83 mM) | 2.5 | 2500 (≈ 15.3 mM) | 1.25 | 312 (≈ 1.91 mM) | 1.0 ± 0.3 | 1.1 ± 0.5 | 1.9 ± 0.8 | 2.1 ± 1.1 | 7.8 ± 1.8 | 7.9 ± 1.7 |  |  |  | 
S=C1NC[C@H](c2ccccc2)O1 [Compound 5, (S)-5-phenyl-1,3-oxazolidine-2-thione] | 5 | 1250 (≈ 6.97 mM) | 5 | 5000 (≈ 27.9 mM) | >5 | 5000 (≈ 27.9 mM) | 7.0 ± 0.9 | 8.4 ± 0.5 | 14.8 ± 0.7 | 16.4 ± 0.4 | 21.6 ± 1.2 | 22.4 ± 0.7 |  |  |  | 
O=C1NCC(c2ccccc2)S1 (stereo not shown) [Compound 6, 5-phenyl-1,3-thiazolidin-2-one] | >5 | > 5000 | >5 | > 5000 | >5 | > 5000 | 3.1 ± 0.6 | 3.0 ± 0.7 | 4.2 ± 0.8 | 4.6 ± 0.6 | 5.9 ± 0.9 | 5.8 ± 1.4 |  |  |  | 
O=C1NCC(c2ccccc2)O1 (stereo not shown) [Compound 7, 5-Phenyl-1,3-oxazolidin-2-one] | 5 | 2500 (≈ 15.3 mM) | 2.5 | 2500 (≈ 15.3 mM) | 5 | 2500 (≈ 15.3 mM) | 1.1 ± 0.4 | 0.9 ± 0.7 | 1.5 ± 0.9 | 1.5 ± 0.8 | 2.6 ± 1.0 | 2.7 ± 1.5 |  |  |  | 
Oc1ccc(CCN=C=S)cc1 [Compound 8, 2-(4-hydroxyphenyl)ethyl isothiocyanate] | 0.625 |  | 0.625 |  | 2.5 |  | 4.4 ± 1.0 | 4.7 ± 1.2 | 7.3 ± 1.3 | 8.1 ± 1.3 | 13.1 ± 0.7 | 14.2 ± 0.9 | <39 | < 39 | 312 (≈ 1.74 mM) | 2500 (≈ 13.9 mM)
